Measured values as given in patent US20150148377A1, “Quinoline Derivatives” (NOVARTIS AG, priority 2011, published 2015).

Target: T1, PI3K delta (Homo sapiens, UniProt O00329)
T1 construct: for the full-length p110-d subunit are generated and fused by overlapping PCR; His tag (C); made in house; host or cells: baculovirus; Tn5 (Trichoplusia ni) or TiniPro insect cells
Experiment: Enzymatic PI3K delta isoform inhibition (lipid kinase activity, Kinase-Glo)
Type: biochemical
Details: enzymatic assay
In short: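 Preferred format: PI3Kδ 10 nM with PI 10 μg/mL and ATP 1 μM in Tris 10 mM pH 7.5, MgCl2 3 mM, NaCl 50 mM, CHAPS, DTT; 60 min at RT, 8 concentrations. ATP depletion read by Kinase-Glo luminescence; IC50 from four-parameter logistic fit.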

T1 sequence (O00329 with tags, fused parts or gaps limits assumed): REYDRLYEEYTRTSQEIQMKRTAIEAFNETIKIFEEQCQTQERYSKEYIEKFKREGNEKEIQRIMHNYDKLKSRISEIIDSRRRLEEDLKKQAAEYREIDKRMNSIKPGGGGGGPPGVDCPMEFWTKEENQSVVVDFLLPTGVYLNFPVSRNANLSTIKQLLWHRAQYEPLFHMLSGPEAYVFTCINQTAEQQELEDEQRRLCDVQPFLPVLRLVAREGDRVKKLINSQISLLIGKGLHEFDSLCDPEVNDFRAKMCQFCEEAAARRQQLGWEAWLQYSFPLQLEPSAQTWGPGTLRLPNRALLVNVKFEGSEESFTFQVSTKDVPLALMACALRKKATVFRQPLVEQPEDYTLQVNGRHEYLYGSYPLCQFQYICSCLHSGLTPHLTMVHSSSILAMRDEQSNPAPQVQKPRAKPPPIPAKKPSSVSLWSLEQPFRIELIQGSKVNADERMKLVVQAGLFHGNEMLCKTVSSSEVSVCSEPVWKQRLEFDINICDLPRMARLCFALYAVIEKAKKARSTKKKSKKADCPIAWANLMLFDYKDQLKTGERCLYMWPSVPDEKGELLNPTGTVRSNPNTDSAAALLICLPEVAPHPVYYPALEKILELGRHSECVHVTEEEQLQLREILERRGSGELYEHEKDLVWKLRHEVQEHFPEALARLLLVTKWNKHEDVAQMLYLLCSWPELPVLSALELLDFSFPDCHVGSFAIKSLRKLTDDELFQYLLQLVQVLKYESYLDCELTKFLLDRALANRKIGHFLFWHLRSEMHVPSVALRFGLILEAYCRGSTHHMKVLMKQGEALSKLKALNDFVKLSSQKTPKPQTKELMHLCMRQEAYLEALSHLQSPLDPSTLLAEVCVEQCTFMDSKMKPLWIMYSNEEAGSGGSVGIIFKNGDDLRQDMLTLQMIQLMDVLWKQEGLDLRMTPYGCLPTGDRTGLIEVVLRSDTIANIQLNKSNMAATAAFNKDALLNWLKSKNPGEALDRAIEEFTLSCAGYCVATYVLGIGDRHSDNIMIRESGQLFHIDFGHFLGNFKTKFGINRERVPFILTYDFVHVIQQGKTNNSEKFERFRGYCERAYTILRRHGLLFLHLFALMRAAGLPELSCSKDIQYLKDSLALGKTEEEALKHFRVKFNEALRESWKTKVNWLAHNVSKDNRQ

| Structure (SMILES) | IC50 [nM] |
| --- | --- |
| COc1ncc(-c2ccnc3ccc(O[C@H]4CCN(C(=O)[C@@H]5CCN(C(C)=O)C5)C4)cc23)cc1C(F)F [Example A24, 1-((R)-3-{(S)-3-[4-(5-Difluoromethyl-6-methoxy-pyridin-3-yl)-quinolin-6-yloxy]-pyrrolidine-1-carbonyl}-pyrrolidin-1-yl)-ethanone] | 12 |
| COc1ncc(-c2ccnc3ccc(O[C@H]4CCN(C(=O)C5CCS(=O)(=O)CC5)C4)cc23)cc1Cl [Example A1, {(S)-3-[4-(5-Chloro-6-methoxy-pyridin-3-yl)-quinolin-6-yloxy]-pyrrolidin-1-yl}-(1,1-dioxo-hexahydro-1lambda*6*-thiopyran-4-yl)-methanone] | < 3 |
| CCC(=O)N1CC[C@H](Oc2ccc3nccc(-c4cnc(S(C)(=O)=O)c(C)c4)c3c2)C1 [Example A25, 1-{(S)-3-[4-(6-Methanesulfonyl-5-methyl-pyridin-3-yl)-quinolin-6-yloxy]-pyrrolidin-1-yl}-propan-1-one] | 12 |
| COc1ncc(-c2ccnc3ccc(O[C@H]4CCN(C(=O)C5CCS(=O)(=O)CC5)C4)cc23)cc1C(F)F [Example A6, {(S)-3-[4-(5-Difluoromethyl-6-methoxy-pyridin-3-yl)-quinolin-6-yloxy]-pyrrolidin-1-yl}-(1,1-dioxo-hexahydro-1lambda*6*-thiopyran-4-yl)-methanone] | 4 |
| COc1ncc(-c2ccnc3ccc(O[C@H]4CCN(C(=O)[C@@H]5CCN(C(C)=O)C5)C4)cc23)cc1C [Example A10, 1-((R)-3-{(S)-3-[4-(6-Methoxy-5-methyl-pyridin-3-yl)-quinolin-6-yloxy]-pyrrolidine-1-carbonyl}-pyrrolidin-1-yl)-ethanone] | 5 |
| COc1ncc(-c2ccnc3ccc(O[C@H]4CCN(C(=O)C5CCS(=O)(=O)CC5)C4)cc23)cc1C [Example A15, (1,1-Dioxo-hexahydro-1lambda*6*-thiopyran-4-yl)-{(S)-3-[4-(6-methoxy-5-methyl-pyridin-3-yl)-quinolin-6-yloxy]-pyrrolidin-1-yl}-methanone] | 7 |

The remaining lines, values ahead:

| IC50 [nM] | Structure (SMILES) |
| --- | --- |
| 302 | COc1ncc(-c2ccnc3cc(F)c(O[C@H]4CCN(C(=O)C5CCS(=O)(=O)CC5)C4)cc23)cc1C [Example C1, (1,1-Dioxo-hexahydro-1lambda*6*-thiopyran-4-yl)-{(S)-3-[7-fluoro-4-(6-methoxy-5-methyl-pyridin-3-yl)-quinolin-6-yloxy]-pyrrolidin-1-yl}-methanone] |
| 332 | Cc1cc(-c2ccnc3cc(F)c(O[C@H]4CCN(C(=O)C5CCOCC5)C4)cc23)cnc1S(C)(=O)=O [Example C2, {(S)-3-[7-Fluoro-4-(6-methanesulfonyl-5-methyl-pyridin-3-yl)-quinolin-6-yloxy]-pyrrolidin-1-yl}-(tetrahydro-pyran-4-yl)-methanone] |
| 5 | COc1ncc(-c2ccnc3ccc(O[C@H]4CCN(C(=O)C5CCS(=O)(=O)CC5)C4)c(C)c23)cc1C [Example B3, (1,1-Dioxo-hexahydro-1lambda*6*-thiopyran-4-yl)-{(S)-3-[4-(6-methoxy-5-methyl-pyridin-3-yl)-5-methyl-quinolin-6-yloxy]-pyrrolidin-1-yl}-methanone] |
| 5 | COc1ncc(-c2ccnc3ccc(O[C@H]4CCN(C(=O)[C@@H]5CCN(C(C)=O)C5)C4)c(C)c23)cc1C(F)F [Example B1, 1-((R)-3-{(S)-3-[4-(5-Difluoromethyl-6-methoxy-pyridin-3-yl)-5-methylquinolin-6-yloxy]-pyrrolidine-1-carbonyl}-pyrrolidin-1-yl)-ethanone] |
